According to patent publication US9850245B2 (Merck Sharp & Dohme Corp., priority 2014, dated 2017):

Columns and labels:
ROMK = ROMK (Homo sapiens (Human), UniProt P48048); assay: Thallium Flux Assay; format: cell-based
Procedure: A Thallium Flux Assay was performed on the compounds of the Examples. This assay has been described previously; see, e.g., PCT Published Application WO 2013/062900.

Kir1.1 (ROMK1) = Kir1.1 (ROMK1) (Homo sapiens (Human), UniProt P48048); assay: Electrophysiology Assay (whole cell voltage clamp, IonWorks Quattro); format: cell-based; details: Chinese hamster ovary cells stably expressing Kir1.1; fractional block at voltage step to 0 mV; 6 min compound incubation
Procedure: Blocking of Kir1.1 (ROMK1) currents was examined by whole cell voltage clamp (Hamill et. al. Pfluegers Archives 391:85-100 (1981)) using the IonWorks Quattro automated electrophysiology platform (Molecular Devices, Sunnyvale, Calif.). Chinese hamster ovary cells stably expressing Kir1.1 channels were maintained in T-75 flasks in cell culture media in a humidified 10% CO2 incubator at 37° C. Prior to an experiment, Kir1.1 expression was induced by overnight incubation with 1 mM sodium butyrate. On the day of the experiment, cells were dissociated with 2.5 mL of Versene (Invitrogen 15040-066), a non-enzymatic cell dissociation reagent, for approximately 6 min at 37° C. and suspended in 10 mL of bath solution containing (in mM): 150 NaCl, 10 KCl, 2.7 CaCl2, 0.5 MgCl2, and 5 HEPES, at pH 7.4. After centrifugation, the cell pellet was resuspended in approximately 4.0 mL of bath solution and placed in the IonWorks instrument. The intracellular solution consisted of (in mM): 80 K gluconate, 40 KCl, 20 KF, 3.2 MgCl2, 3 EGTA, and 5 Hepes, at pH 7.4. Electrical access to the cytoplasm was achieved by perforation in 0.13 mg/mL amphotericin B for 4 min. Amphotericin B (Sigma A-4888) was prepared as a 40 mg/mL solution in DMSO.
Voltage protocols and current recordings were performed using the IonWorks HT software/hardware system. Currents were sampled at 1 kHz. There was no correction for liquid junction potentials. The test pulse, consisting of a 100 ms (millisecond) step to 0 mV (millivolts) from a holding potential of −70 mV, followed by a 100 ms voltage ramp from −70 mV to +70 mV, was applied before and after a 6 min compound incubation period. Test compounds were prepared by diluting DMSO stock solutions into the bath solution at 3× the final concentration and placed in the instrument in 96-well polypropylene plates. Current amplitudes were measured using the IonWorks software. To assess compound potency, the fractional block during the voltage step to 0 mV was calculated in Microsoft Excel (Microsoft, Redmond, Calif.), and dose-response curves were fitted with Igor Pro 4.0 (WaveMetrics, Lake Oswego, Oreg.).

Sequence of Kir1.1 (ROMK1) (P48048 whole entry): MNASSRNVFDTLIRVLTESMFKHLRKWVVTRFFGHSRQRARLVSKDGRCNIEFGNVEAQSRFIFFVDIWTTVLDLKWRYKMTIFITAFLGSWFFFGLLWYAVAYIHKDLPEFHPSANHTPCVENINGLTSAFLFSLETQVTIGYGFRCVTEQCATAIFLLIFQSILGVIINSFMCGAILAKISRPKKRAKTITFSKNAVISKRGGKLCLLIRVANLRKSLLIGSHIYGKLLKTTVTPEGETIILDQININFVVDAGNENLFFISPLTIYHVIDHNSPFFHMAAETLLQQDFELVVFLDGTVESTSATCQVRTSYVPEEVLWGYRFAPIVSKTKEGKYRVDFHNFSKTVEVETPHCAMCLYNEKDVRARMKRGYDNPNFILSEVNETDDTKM
Sequence of ROMK (P48048 whole entry): as above

Molecule `CC1=C(N2CCNC3(CCN(CC(O)c4ccc(-n5cnnn5)nc4C)CC3)C2=O)COC1=O` (single isomer, unassigned) [Example 2A, 9-(2-hydroxy-2-(2-methyl-6-(1H-tetrazol-1-yl)pyridin-3-yl)ethyl)-4-(4-methyl-5-oxo-2,5-dihydrofuran-3-yl)-1,4,9-triazaspiro[5.5]undecan-5-one] has an IC50 (ROMK) of 36.5 nM and an IC50 (Kir1.1 (ROMK1)) of 26 nM.
In the case of `CC1=C(N2CCOC3(CCN(CC(O)c4cnc(-n5cnnn5)cn4)CC3)C2=O)COC1=O` (single isomer, unassigned) [Example 18A, 9-(2-(5-(1H-tetrazol-1-yl)pyrazin-2-yl)-2-hydroxyethyl)-4-(4-methyl-5-oxo-2,5-dihydrofuran-3-yl)-1-oxa-4,9-diazaspiro[5.5]undecan-5-one], the IC50 (ROMK) is reported as 69.6 nM and the IC50 (Kir1.1 (ROMK1)) is reported as 12 nM.
`Cc1nc(-n2cnnn2)ccc1C(O)CN1CCC2(CC1)CN(C1=CC(=O)OC1)CCO2` (single isomer, unassigned) [Example 20A, 4-(9-(2-hydroxy-2-(2-methyl-6-(1H-tetrazol-1-yl)pyridin-3-yl)ethyl)-1-oxa-4,9-diazaspiro[5.5]undecan-4-yl)furan-2(5H)-one] was tested, and the IC50 (ROMK) was 61.5 nM and the IC50 (Kir1.1 (ROMK1)) was 37 nM.
In the case of `Cc1nc(-n2cnnn2)ccc1C(O)CN1CCC2(CC1)CN(C1=CC(=O)OC1)CCO2` (single isomer, unassigned) [Example 20B, 4-(9-(2-hydroxy-2-(2-methyl-6-(1H-tetrazol-1-yl)pyridin-3-yl)ethyl)-1-oxa-4,9-diazaspiro[5.5]undecan-4-yl)furan-2(5H)-one], the IC50 (ROMK) is reported as 225 nM and the IC50 (Kir1.1 (ROMK1)) is reported as 71 nM.
`CC1=C(N2CCOC3(CCN(CC(O)c4ccc(-n5cnnn5)nc4C)CC3)C2)COC1=O` (single isomer, unassigned) [Example 22A, 4-(9-(2-hydroxy-2-(2-methyl-6-(1H-tetrazol-1-yl)pyridin-3-yl)ethyl)-1-oxa-4,9-diazaspiro[5.5]undecan-4-yl)-3-methylfuran-2(5H)-one] was tested, and the IC50 (ROMK) was 34 nM and the IC50 (Kir1.1 (ROMK1)) was 11 nM.
`CC1=C(N2CCOC3(CCN(CC(O)c4ccc(-n5cnnn5)nc4C)CC3)C2)COC1=O` (single isomer, unassigned) [Example 22B, 4-(9-(2-hydroxy-2-(2-methyl-6-(1H-tetrazol-1-yl)pyridin-3-yl)ethyl)-1-oxa-4,9-diazaspiro[5.5]undecan-4-yl)-3-methylfuran-2(5H)-one] showed an IC50 (ROMK) of 117 nM and an IC50 (Kir1.1 (ROMK1)) of 29 nM.
In the case of `CC1=C(N2CCOC3(CCN(CC(O)c4cnc(-n5cnnn5)nc4)CC3)C2=O)COC1=O` (single isomer, unassigned) [Example 46A, 9-(2-(2-(1H-tetrazol-1-yl)pyrimidin-5-yl)-2-hydroxyethyl)-4-(4-methyl-5-oxo-2,5-dihydrofuran-3-yl)-1-oxa-4,9-diazaspiro[5.5]undecan-5-one], the IC50 (ROMK) is reported as 56 nM and the IC50 (Kir1.1 (ROMK1)) is reported as 51 nM.
`CC1=C(N2CCNC3(CCN(C[C@H](O)c4ccc(-n5cnnn5)nc4)CC3)C2=O)COC1=O` [Example 4A, (R)-9-(2-(6-(1H-tetrazol-1-yl)pyridin-3-yl)-2-hydroxyethyl)-4-(4-methyl-5-oxo-2,5-dihydrofuran-3-yl)-1,4,9-triazaspiro[5.5]undecan-5-one] showed an IC50 (ROMK) of 38.2 nM and an IC50 (Kir1.1 (ROMK1)) of 46 nM.
`CC1=C(N2CCOC3(CCN(C[C@H](O)c4ccc(-n5cnnn5)nc4)CC3)C2=O)COC1=O` [Example 6A, (R)-9-(2-(6-(1H-tetrazol-1-yl)pyridin-3-yl)-2-hydroxyethyl)-4-(4-methyl-5-oxo-2,5-dihydrofuran-3-yl)-1-oxa-4,9-diazaspiro[5.5]undecan-5-one] gave an IC50 (ROMK) of 14.6 nM and an IC50 (Kir1.1 (ROMK1)) of 6.6 nM.
`CC1=C(N2CCOC3(CCN(C[C@@H](O)c4ccc(-n5cnnn5)nc4)CC3)C2=O)COC1=O` [Example 6B, (S)-9-(2-(6-(1H-tetrazol-1-yl)pyridin-3-yl)-2-hydroxyethyl)-4-(4-methyl-5-oxo-2,5-dihydrofuran-3-yl)-1-oxa-4,9-diazaspiro[5.5]undecan-5-one] was tested, and the IC50 (ROMK) was 12.1 nM and the IC50 (Kir1.1 (ROMK1)) was 3.8 nM.
Work on `CC1=C(N2CCOC3(CCN(C[C@H](O)c4ccc5c(c4C)COC5=O)CC3)C2=O)COC1=O` [Example 8A, (R)-9-(2-hydroxy-2-(4-methyl-1-oxo-1,3-dihydroisobenzofuran-5-yl)ethyl)-4-(4-methyl-5-oxo-2,5-dihydrofuran-3-yl)-1-oxa-4,9-diazaspiro[5.5]undecan-5-one] yielded an IC50 (ROMK) of 13.3 nM and an IC50 (Kir1.1 (ROMK1)) of 6.4 nM.
Work on `Cc1c([C@@H](O)CN2CCC3(CC2)CN(C2=CC(=O)OC2)C(=O)O3)ccc2c1COC2=O` [Example 16, (R)-8-(2-hydroxy-2-(4-methyl-1-oxo-1,3-dihydroisobenzofuran-5-yl)ethyl)-3-(5-oxo-2,5-dihydrofuran-3-yl)-1-oxa-3,8-diazaspiro[4.5]decan-2-one] yielded an IC50 (ROMK) of 315 nM and an IC50 (Kir1.1 (ROMK1)) of 320 nM.
For `O=C1C=C(N2CCOC3(CCN(C[C@H](O)c4ccc(-n5cnnn5)nc4)CC3)C2)CO1` [Example 19A, (R)-4-(9-(2-(6-(1H-tetrazol-1-yl)pyridin-3-yl)-2-hydroxyethyl)-1-oxa-4,9-diazaspiro[5.5]undecan-4-yl)furan-2(5H)-one], the IC50 (ROMK) was 80.6 nM and the IC50 (Kir1.1 (ROMK1)) was 56 nM.
With `O=C1C=C(N2CCOC3(CCN(C[C@@H](O)c4ccc(-n5cnnn5)nc4)CC3)C2)CO1` [Example 19B, (S)-4-(9-(2-(6-(1H-tetrazol-1-yl)pyridin-3-yl)-2-hydroxyethyl)-1-oxa-4,9-diazaspiro[5.5]undecan-4-yl)furan-2(5H)-one] the IC50 (ROMK) was 263 nM and the IC50 (Kir1.1 (ROMK1)) was 100 nM.
Work on `CC1=C(N2CCOC3(CCN(C[C@H](O)c4ccc5c(c4C)COC5=O)CC3)C2)COC1=O` [Example 21, (R)-5-(1-hydroxy-2-(4-(4-methyl-5-oxo-2,5-dihydrofuran-3-yl)-1-oxa-4,9-diazaspiro[5.5]undecan-9-yl)ethyl)-4-methylisobenzofuran-1(3H)-one] yielded an IC50 (ROMK) of 171 nM and an IC50 (Kir1.1 (ROMK1)) of 77 nM.
`CC1=C(N2CCN(C)C3(CCN(C[C@H](O)c4ccc5c(c4C)COC5=O)CC3)C2=O)COC1=O` [Example 34, (R)-9-(2-hydroxy-2-(4-methyl-1-oxo-1,3-dihydroisobenzofuran-5-yl)ethyl)-1-methyl-4-(4-methyl-5-oxo-2,5-dihydrofuran-3-yl)-1,4,9-triazaspiro[5.5]undecan-5-one] gave an IC50 (ROMK) of 42.3 nM and an IC50 (Kir1.1 (ROMK1)) of 27 nM.
In the case of `O=C1C=C(N2CCOC3(CC4CCC(C3)N4CCc3ccc(-n4cnnn4)nn3)C2=O)CO1` [Example 54, (1R,2′r,5S)-8-(2-(6-(1H-tetrazol-1-yl)pyridazin-3-yl)ethyl)-4′-(5-oxo-2,5-dihydrofuran-3-yl)-8-azaspiro[bicyclo[3.2.1]octane-3,2′-morpholin]-3′-one], the IC50 (ROMK) is reported as 3.76 nM.
`CC1=C(N2CCOC3(CCN(C[C@H](F)c4ccc(-n5cnnn5)nc4)CC3)C2=O)COC1=O` [Example 55, (R)-9-(2-(6-(1H-tetrazol-1-yl)pyridin-3-yl)-2-fluoroethyl)-4-(4-methyl-5-oxo-2,5-dihydrofuran-3-yl)-1-oxa-4,9-diazaspiro[5.5]undecan-5-one] gave an IC50 (ROMK) of 59 nM.
For `CC1=C(N2CCOC3(CCN(C[C@@H](F)c4ccc(-n5cnnn5)nc4)CC3)C2=O)COC1=O` [Example 56, (S)-9-(2-(6-(1H-tetrazol-1-yl)pyridin-3-yl)-2-fluoroethyl)-4-(4-methyl-5-oxo-2,5-dihydrofuran-3-yl)-1-oxa-4,9-diazaspiro[5.5]undecan-5-one], the IC50 (ROMK) was 49 nM.
Molecule `CC1=C(N2CCOC3(CCN(C[C@H](F)c4ccc5c(c4C)COC5=O)CC3)C2=O)COC1=O` [Example 57, (R)-9-(2-fluoro-2-(4-methyl-1-oxo-1,3-dihydroisobenzofuran-5-yl)ethyl)-4-(4-methyl-5-oxo-2,5-dihydrofuran-3-yl)-1-oxa-4,9-diazaspiro[5.5]undecan-5-one] has an IC50 (ROMK) of 218 nM.
In the case of `CC1=C(N2CCOC3(CCN(C[C@@H](F)c4ccc5c(c4C)COC5=O)CC3)C2=O)COC1=O` [Example 58, (S)-9-(2-fluoro-2-(4-methyl-1-oxo-1,3-dihydroisobenzofuran-5-yl)ethyl)-4-(4-methyl-5-oxo-2,5-dihydrofuran-3-yl)-1-oxa-4,9-diazaspiro[5.5]undecan-5-one], the IC50 (ROMK) is reported as 306 nM.
`CC1=C(N2CC3(CCN(C[C@H](O)c4ccc5c(c4C)COC5=O)CC3)OCC2=O)COC1=O` [Example 59, (R)-9-(2-hydroxy-2-(4-methyl-1-oxo-1,3-dihydroisobenzofuran-5-yl)ethyl)-4-(4-methyl-5-oxo-2,5-dihydrofuran-3-yl)-1-oxa-4,9-diazaspiro[5.5]undecan-3-one] showed an IC50 (ROMK) of 697 nM.
